Results taken from paper PMC6646405, “A quantitative, high-throughput method identifies protein–glycan interactions via mass spectrometry” (Communications Biology, 2019).
Values joined by “and” are separate entries in the source; they are usually repeats but may differ in a detail not shown here. Equal entries are not always repeated.

Legend:
[1] = target: Cholera toxin B subunit homopentamer (CTB5) (Vibrio cholerae serotype O1, UniProt P01556); type: binding
[2] = tested on: family 51 carbohydrate binding module (CBM51); assay: CUPRA library screening and affinity, CBM51; conditions: 25uM CBM51; mean of 4 DIi values, FigS3a
Experimental: Unless otherwise noted, the measurements were performed at 25 °C. […] We identified specific ligands from the depletion index (DIi, Eq. 1) – the change in the fractional abundance (Fi, Eq. 2) ratio of ligand i-bound and free ^UniPproxy ions upon addition of GBP. Prior to calculating Fi, we treated each mass spectrum with the Sliding Window Adducts Removal Method (SWARM)[18] to remove contributions to the abundance of ^UniPproxy -OS^mod complex ions from adducts, formed by the ESI process, of neighbouring complex ions (Supplementary Fig. 2). Shown in Fig. 2a is a summary of the DIi measured by CUPRA screening of the 66-component library against S4 (50 μM). As expected, the average DIi for this negative control is close to 1.0 (0.99 ± 0.03). In contrast, CUPRA screening against the positive controls produced decreases in DIi for one or more of the library components. […] Application of CUPRA to human CD22, part of an important class of Neu5Ac-binding GBPs implicated in both innate and adaptive immunity, correctly identified HMO08 as a ligand (Supplementary Fig. 4a). CUPRA screening of MAA at high concentration (50 μM) identified HMO03 and GA06 as ligands. […]
Using SWARM-treated mass spectra, DIi was calculated for each ligand from the ratio of the fractional abundances (Fi) of ligand (i)-bound and free ^UniPproxy ions in the presence (+GBP) and absence (-GBP) of GBP, Eqs. […]

[3] = target: T1, human neuraminidase 3 (NEU3) (Homo sapiens, UniProt Q9UQ49); assay: Time-resolved CUPRA enzyme kinetics, NEU3; type: biochemical
T1 construct: made in house
T1 sequence (Q9UQ49 1-428): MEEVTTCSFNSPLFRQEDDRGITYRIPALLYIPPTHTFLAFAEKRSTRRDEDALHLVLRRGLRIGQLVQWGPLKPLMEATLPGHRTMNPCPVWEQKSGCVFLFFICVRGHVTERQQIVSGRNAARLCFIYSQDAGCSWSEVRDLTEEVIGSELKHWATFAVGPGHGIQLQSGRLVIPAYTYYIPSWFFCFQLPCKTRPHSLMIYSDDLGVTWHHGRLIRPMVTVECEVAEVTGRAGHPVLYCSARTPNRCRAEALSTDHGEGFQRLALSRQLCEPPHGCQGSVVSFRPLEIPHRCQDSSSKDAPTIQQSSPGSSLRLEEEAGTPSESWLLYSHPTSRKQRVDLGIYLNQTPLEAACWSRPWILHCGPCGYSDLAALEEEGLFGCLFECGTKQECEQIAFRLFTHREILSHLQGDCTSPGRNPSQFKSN
Experimental: To apply CUPRA in this capacity, two or more substrates of interest are introduced, as their corresponding OS^mod, to a solution containing the desired CAZyme. Changes in substrate concentrations, as well as those of the corresponding enzyme products, are determined from the relative abundances of OS^mod-bound ^UniPproxy measured by time-resolved ESI-MS. Because of the manner in which the substrate and product concentrations are measured, the assay is insensitive to differences in their ESI-MS response factors and, consequently, independent of the nature of the chemical modification catalyzed by the enzyme. As a result, time-resolved CUPRA eliminates the need for calibration curves or internal standards, which are generally required with ESI-MS-based enzyme kinetics assays.
Two glycosyl hydrolases, human neuraminidase 2 (NEU2) and 3 (NEU3), which preferentially cleave α2-3-linked Neu5Ac residues, were used to illustrate the ease with which time-resolved CUPRA can establish substrate specificities. We incubated libraries of the Neu5Ac-containing OS^mod with NEU2 (Fig. 2d) or NEU3 (Fig. 2e) and monitored their conversion to the corresponding desialylated OS^mod products at pH 7 and 25 °C. […] All OS^mod containing terminal α2-3-linked Neu5Ac were substrates of NEU3, with initial rates that are 10–50% that of HMO03. […]

[4] = target: human carbonic anhydrase type 1 (Homo sapiens, UniProt P00915); assay: Direct ESI-MS affinity of OSmod for the universal proxy protein (UniPproxy); conditions: read-out: Kd of OSmod for UniPproxy; direct ESI-MS, 200 mM aqueous ammonium acetate, pH 7, 25 °C
Sequence of human carbonic anhydrase type 1 (P00915 whole entry): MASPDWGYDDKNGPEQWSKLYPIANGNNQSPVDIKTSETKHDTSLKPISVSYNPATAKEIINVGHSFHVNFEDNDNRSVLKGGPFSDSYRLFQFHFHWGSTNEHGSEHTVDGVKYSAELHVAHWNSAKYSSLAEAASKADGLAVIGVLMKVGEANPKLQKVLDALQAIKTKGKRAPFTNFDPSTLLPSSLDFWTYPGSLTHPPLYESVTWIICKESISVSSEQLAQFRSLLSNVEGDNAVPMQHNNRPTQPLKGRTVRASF

Sequence of Cholera toxin B subunit homopentamer (CTB5) (P01556 22-124 limits assumed): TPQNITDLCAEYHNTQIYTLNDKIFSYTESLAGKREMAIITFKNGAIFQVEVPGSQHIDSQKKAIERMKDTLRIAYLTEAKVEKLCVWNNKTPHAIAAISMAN

Q: How did the “DIi(2uM CTB5)” value [1] turn out when CC(=O)N[C@H]1[C@H](O[C@@H]2[C@H](O[C@]3(C(=O)O)C[C@H](O)[C@@H](NC(C)=O)[C@H]([C@H](O)[C@@H](CO)O[C@]4(C(=O)O)C[C@H](O)[C@@H](NC(C)=O)[C@H]([C@H](O)[C@H](O)CO)O4)O3)[C@@H](O)[C@H](O[C@H]3[C@H](O)[C@@H](O)[C@H](N(CCOCCOCCNC(=O)[C@H](Cc4ccccc4)NC(=O)[C@H](Cc4ccccc4)NC(=O)CCCC(=O)NCCc4ccc(S(N)(=O)=O)cc4)C(C)=O)O[C@@H]3CO)O[C@@H]2CO)O[C@H](CO)[C@H](O)[C@@H]1O [GA10, GalNAcβ1-4(Neu5Acα2-8 Neu5Acα2-3)Galβ1-4Glc-CL] was run?
A: 1.017 and 1.023 and 1.026 and 1.032

Q: And the “DIi(10uM CTB5)” value [1]?
A: 1.049 and 1.055 and 1.045 and 1.05

Q: What about the “DIi(10uM CTB5 at 0C)” value [1] of the same compound?
A: 1.029 and 1.025 and 1.026 and 1.021

Q: And the “average DI” value [1]?
A: 1.025 and 1.0497

Q: And the “average DI” value [2]?
A: 0.9576

Q: And the “substrate specificity of NEU3” value ([3]; pH 7, 25 °C)?
A: substrates for NEU3

Q: What about the “Relative activity NEU3” value ([3]; time-resolved CUPRA, 200 mM aqueous ammonium acetate pH 7, 25 °C, relative to HMO03) of the same compound?
A: 0.292

Q: And the Kd [4]?
A: 14.1 ± 1.9 µM
